Source: patent US20260166182A1, “CYANINE-BASED FLUOROPHORES” (The General Hospital Corporation, priority 2022, published 2026)
Entries after “also recorded” stand apart in the source; their conditions may differ.

Tests used:
LLC tumor = assay: Tumor histopathology with NIR fluorescence microscopy of resected LLC tumors; assay type: in vivo, mouse; settings: histological NIR images
Protocol: Tumor histopathology evaluation: […] After rinsing with PBS, the fixed sections were counterstained with nuclear fast red, dehydrated by ethanol, transferred into xylene, and finally mounted according to the standard protocol. To determine the tissue distribution of the NIR fluorophore, the dissected tissues were embedded in Tissue-Tek optimum cutting temperature compound (Sakura Finetek, Torrance, CA) without a pre-fixation step. The tissue block was frozen at −80° C. Frozen sections were cut at a thickness of 10 or 50 μm by a cryostat (Leica, Germany). Then, the tissue sections were stained with hematoxylin and eosin (H&E). The BioTek Cytation 5 (Winooski, VT) was used for pathological fluorescence imaging and observation.

LLC cells = assay: Cytotoxicity study (CCK-8 cell proliferation); assay type: cell-based; settings: 24 h incubation
Protocol: Cytotoxicity study: 200 μL of cell suspension was added into a 96-well plate to have 5000 cells in each well. The plate was pre-incubated for 24 hours in a humidified incubator for cells to attach on the bottom of the plate. Stock solutions of SH1, IR-780, and DMSO were premixed with the cell culture media (DMEM containing 10% FBS) to 50 μM, and premixed solutions were filtered using a syringe filter ([…]), and then were diluted to final concentrations of 1-25 μM. After cells reached the desired density (40-50% confluency), the existing media was removed and exchanged with the above solutions at certain concentrations. The plate was further incubated for 24 h. The cell proliferation was determined using a CCK-8 Kit.

[1] = tested on: orthotopic lung cancer (LLC cell); assay: Orthotopic lung tumor targeting; assay type: in vivo, mouse; settings: 50 nmol, 48 h prior to imaging
Source text: General NIR-II fluorescence imaging: A 640×512-pixel InGaAs camera (Ninox640, Raptor Photonics) and macro zoom lens (0-10×; Navitar Zoom 7000 with SWIR coating) along with 900, 1070, 1100, and 1200 nm long-pass (LP) filters from either Thorlab or Edmund optics were used to collect the NIR-II signal. InGaAs camera played a role as an open-air imaging system along with the support of the FLARE system. An 808 nm fiber-coupled diode laser ([…] at the sample) was used as an excitation source. Data acquisition was done using in-house developed software. The mice fur on the region of interest was shaved prior to imaging using a clipper and removed completely using a depilatory cream. 100 μL of SH1 in 5 w/v % BSA saline ([…]) was injected through the tail vein. Mice were imaged with intact skin using InGaAs camera. At least 3 mice were analyzed for each sample. […]
Statistical analysis: The fluorescence and background intensities of a region of interest over each tissue were quantified using customized imaging software and ImageJ v1.48 (National Institutes of Health, Bethesda, MD). The signal-to-background ratio (SBR) was calculated as SBR=fluorescence/background, where background was the fluorescence intensity of muscle. […] The differences among groups were determined using one-way ANOVA analysis to assess the statistical differences among more than two groups. […]

[2] = tested on: immune cells from bone marrow and tumor tissues; assay: Flow cytometry analysis of fluorophore-targeted immune cells from bone marrow and tumor; assay type: in vivo, mouse
Protocol: Flow cytometry analysis: Bone marrow tissue was mechanically dissociated and digested with collagenase D (175 unit/mL, Roche) and DNase I (100 unit/mL, Roche) followed by EDTA (2 mM, Invitrogen). Erythrocytes were removed using RBC Lysis Buffer (Invitrogen). Tumor tissue was mechanically dissociated and digested with collagenase I (175 unit/mL, Thermo-fisher), Collagenase IV (250 unit/mL, Thermo-fisher, 1700019), and DNase I (100 unit/mL) followed by EDTA ([…]). Immune cells were isolated from cell suspensions of the bone marrow or tumor tissue using Ficoll® Paque Plus (GE Healthcare). Isolated cells were stained with anti-mouse F4/80 (BM8, Biolegend, 123131), anti-mouse Ly-6G (1A8, Biolegend, 127639), anti-mouse Ly-6C(HK1.4, Biolegend, 128011), anti-mouse CD11c (N418, Biolegend, 117313), anti-mouse CD103 (2E7, Biolegend, 121425), anti-mouse I-A/I-E (M5/114.15.2 Biolegend, 107611), anti-mouse/human CD11b (M1/70, Biolegend, 101254) and anti-mouse CD45 antibodies (30-F11, Biolegend, 103105) conjugated to fluorophores. Isolated cells were stained with Live/dead®-Aqua (Life Technologies) to distinguish live cells. Stained cells were fixed using 1% paraformaldehyde prior to analysis. Data acquisition was performed on a Fortessa cytometer (BD) followed by analysis on FlowJo software (Tree Star).

[3] = In vivo biodistribution study of NIR fluorophores in CD-1 mice; parameters: species or system mouse; settings: 25 nmol intravenous, 4 h post-injection; listed as 18
Protocol: In Vivo Biodistribution Study of NIR Fluorophores: Under the supervision of the MGH IACUC, animals were housed in an AAALAC-certified facility and studied according to institutional protocol #2016N000136. In preparation for injection, CD-1 mice (25-30 g, 6 weeks, Charles River Laboratories, Wilmington, MA) were anesthetized with isoflurane and oxygen. A 10 mM stock solution of NIR fluorophores was prepared in DMSO, and 25 nmol of each molecule was diluted in BSA-containing saline (5 wt/v %) for intraoperative imaging. After 4 h post-injection, mice were imaged. For each experiment, camera exposure time and image normalization were held constant.
Quantitative Analysis: The fluorescence and background intensity of a region of interest (ROI) over each tissue was quantified using ImageJ software (NIH, Bethesda, MD) version 1.45q. The signal-to-background ratio (SBR) was calculated as SBR=fluorescence/background, where background is the signal intensity of neighboring tissues such as muscle. All NIR fluorescence images for a particular fluorophore were normalized identically for all conditions of an experiment.

## CCCCN1/C(=C/C=C2\CCCC(/C=C/C3=[N+](CCCC)c4ccc(Cl)cc4C3(C)C)=C2Cl)C(C)(C)c2cc(Cl)ccc21 [SH1, 1-butyl-2-((E)-2-((E)-3-(2-((E)-1-butyl-5-chloro-3,3-dimethylindolin-2-ylidene)ethylidene)-2-chlorocyclohex-1-en-1-yl)vinyl)-5-chloro-3,3-dimethyl-3H-indol-1-ium]
LLC tumor
  fluorescence signal location in resected tumor: strong fluorescence signals in the targeted tumor
LLC cells
  concentration that did not affect cell proliferation: up to 10 μM
[1]
  TBR against normal tissue: 47.3
  TBR against the lung: 3.12
[2]; CD11b+ DCs
  targeted tumor-associated immune cells: 45.4%
[2]; CD103+ DCs
  targeted tumor-associated immune cells: 23.8%
[2]; Ly6C^high monocyte
  targeted tumor-associated immune cells: 48.6%
[2]; Ly6C^low monocyte
  targeted tumor-associated immune cells: 43.1%
[2]; Macrophage
  targeted tumor-associated immune cells: 45.7%
[2]; tumor
  cells identified as targeted TAICs in the tumor region: macrophages, Ly6C^low monocytes, and dendritic cells
[3]
  tissue/organ signals: high signals in the primary and secondary lymphoid tissues; also recorded: higher signals in the bone marrow, spleen, and lymph nodes
